Laboratory results reported in paper PMC9500858 (International Journal of Molecular Sciences, 2022).
“Also recorded” adds a separate entry of the source.

Assays:
[1] = HCl (1 M); settings: 80 °C for 12 h and 37°C for 24 h, up to 96 h
[2] = 30% (v/v) hydrogen peroxide (H2O2); settings: 37 °C for 24 h and 80 °C for 12 h, up to 24 h
[3] = 1 M HCl (acid hydrolysis); settings: 37 °C (24 h) and 80 °C (12 h), up to 96 h (time course, Figure 2C); 24 h at 37 °C; 12 h at 80 °C
[4] = 1 M NaOH (base hydrolysis); settings: 37 °C (24 h) and 80 °C (12 h), up to 96 h (time course, Figure 2D); 24 h at 37 °C; 12 h at 80 °C

| cleaved bond [1] | cleaved bond [2] | Substance | fragment found [3] | fragment found [4] |
| --- | --- | --- | --- | --- |
| Phe-Ile9; also recorded: D-Lys2-Phe | Dmt1-D-Lys2 | HELM PEPTIDE1{[Cc1cc(O)cc(C)c1C[C@H](N)C(=O)[*:2]].[dK].F.F.K.K.P.F.I.L}$$$$V2.0 (N-terminus assumed; SMILES CC[C@H](C)[C@H](NC(=O)[C@H](Cc1ccccc1)NC(=O)[C@@H]1CCCN1C(=O)[C@H](CCCCN)NC(=O)[C@H](CCCCN)NC(=O)[C@H](Cc1ccccc1)NC(=O)[C@H](Cc1ccccc1)NC(=O)[C@@H](CCCCN)NC(=O)[C@@H](N)Cc1c(C)cc(O)cc1C)C(=O)N[C@@H](CC(C)C)C(=O)O) |  |  |
|  |  | HELM PEPTIDE1{[Cc1cc(O)cc(C)c1C[C@H](N)C(=O)[*:2]].[dK].F.F.K.K.P.F.[CC(C)(C)[C@H](N[*:1])C(=O)[*:2]].L}$$$$V2.0 (N-terminus assumed; SMILES Cc1cc(O)cc(C)c1C[C@H](N)C(=O)N[C@H](CCCCN)C(=O)N[C@@H](Cc1ccccc1)C(=O)N[C@@H](Cc1ccccc1)C(=O)N[C@@H](CCCCN)C(=O)N[C@@H](CCCCN)C(=O)N1CCC[C@H]1C(=O)N[C@@H](Cc1ccccc1)C(=O)N[C@H](C(=O)N[C@@H](CC(C)C)C(=O)O)C(C)(C)C) | compound H—Phe-Lys-Lys-Pro-Phe-Tle-Leu; also recorded: compound K—Pro-Phe-Tle | compound H—Phe-Lys-Lys-Pro-Phe-Tle-Leu; also recorded: compound K—Pro-Phe-Tle; also recorded: compound J (Pro-Phe-Tle-Leu) |
